Measurements reported in US7632679B2, “Systems and methods for screening for modulators of neural differentiation” (The Trustees of Columbia University in the City of New York, priority 2002, dated 2009).
“Also recorded” adds a separate entry of the source.

Assays:
HBG3 ES cells = test: eGFP+ motor neuron generation in HBG3 ES-cell-derived embryoid bodies; format: cell-based, mouse
Procedure: (§1) For some experiments, ES cells were grown on a monolayer of stromal PA6 cell line (Riken Cell Bank, Japan), in DFK5 medium alone, or supplemented with 2 μM RA, as described (Kawasaki et al., Induction of midbrain dopaminergic neurons from ES cells by stromal cell-derived inducing activity. Neuron, 28:31-40, 2000).
A transgenic mouse line was established by pronucleus injection of a construct that used a ˜9 kB fragment comprising the 5′ upstream region of the murine HB9 gene (Arber et al., Requirement for the homeobox gene Hb9 in the consolidation of motor neuron identity. Neuron, 23:659-764, 1999), followed by a 5′ splice substrate (Choi et al., A generic intron increases gene expression in transgenic mice. Mol. Cell Biol., 11:3070-74, 1991), an eGFP gene, and a bovine growth hormone polyadenylation signal. The ˜9 kB Not1 fragment of HB9 is sufficient to direct eGFP expression to develop motor neurons in transgenic embryos examined from E9.5 to P10. In one transgenic line (mHB9-Gfp1b), the pattern of eGFP expression corresponded closely to the profile of expression of endogenous HB9. ES-cell lines were derived from mHB9-Gfp1b heterozygous blastocysts, as previously described (Abbondanzo et al., Derivation of embryonic stem cell lines. Methods Enzymol., 225:803-23, 1993). One selected line (HBG3) was tested for its capacity to integrate into developing mouse blastocysts and its capacity for germline transmission.
HBG3 ES-cell embryoid bodies were dissociated using a papain dissociation system (Worthington Biochemical Corp.). Cells expressing high levels of eGFP were sorted from the cell suspension with a Beckman-Coulter Altra flow cytometer, based on their eGFP fluorescence and forward light scatter using the gate indicated in the plot. Typically, 20-30% of input cells expressed high levels of GFP. The analysis established that this eGFP-Hi cell group constituted a >95% pure population of motor neurons. The yield of a typical FACS sort is 3000-5000 GFP-Hi cells per EB.

[1] = tested on: ES-cell-derived embryoid bodies; test: HB9+ motor neuron generation in embryoid bodies; format: cell-based, mouse
Procedure: as §1
To begin to examine the capacity of mouse ES cells to generate motor neurons, the inventors grew mouse ES cells in aggregate culture for 2 days, a procedure that results in the formation of embryoid bodies (EBs) (Bain et al., Embryonic stem cells express neuronal properties in vitro. Dev. Biol., 168:342-57, 1995).

[2] = tested on: neural progenitor cells in embryoid bodies; test: Progenitor transcription factor expression (ventralization) in RA-exposed embryoid bodies; format: cell-based, mouse
[3] = tested on: ES cells / embryoid bodies; test: Suppression and induction of a neural character in differentiating embryoid bodies; format: cell-based, mouse; details: for acquisition of neural precursor cell fate (Sox1): 4 days of differentiation, factor present for entire culture (Wnt3a conditioned medium 1×, BMP4 10 ng/ml, SU5402 5 μM); for neural precursor or post-mitotic neural cells: EBs differentiated 4 days with RA+Wnt3a or RA+BMP4
Procedure: (§2) Medium was replaced every 2 days. Medium was supplemented by factors, at the start of ES-cell aggregation/differentiation (day 0) or on day 2, as indicated below, and cultured for a further 2-8 days.
(§3) Soluble Wnt3a and control-conditioned medium (Wilson et al., The status of Wnt signaling regulates neural and epidermal fates in the chick embryo. Nature, 411:325-30, 2001) were prepared, as previously described (Shibamoto et al., Cytoskeletal reorganization by soluble Wnt-3a protein signalling. Genes Cells, 3:659-70, 1998). Soluble Frizzled 8 (mFrz8CRD-IgG) and control-conditioned medium were prepared by transfecting HEK-293 cells with mfz8CRD-IgG (Hsieh et al., Biochemical characterization of Wnt-frizzled interactions using a soluble, biologically active vertebrate Wnt protein. Proc. Natl. Acad. Sci. USA, 96:3546-51, 1999) or LacZ reporter construct (Wilson et al., An early requirement for FGF signalling in the acquisition of neural cell fate in the chick embryo. Curr. Biol., 10:421-29, 2000). The transfected HEK-293 cells were then incubated for 48 h in OPTI-MEM medium. mFrzCRD-1gG conditioned medium was used undiluted.
Immunohistochemical localization of proteins was performed, as previously described (Yamada et al., Control of cell pattern in the developing nervous system: polarizing activity of the floor plate and notochord. Cell, 64:635-47, 1991). Neural precursor (neural progenitor) cells were delineated by expression of rabbit anti-Sox1. Post-mitotic neurons were delineated using mouse anti-Pax6. Otx1/Otx2 and Eng1, which are co-expressed at the midbrain/hindbrain boundary, were used to define cells of a midbrain-like character (Davis and Joyner, Expression patterns of the homeo box-containing genes En-1 and En-2 and the proto-oncogene int-1 diverge during mouse development. Genes Dev., 2:1736-44, 1988). Hox C6 and HoxC8 were used to delineate cells of a spinal-cord character. Krox20 (Covance) is expressed in hindbrain cells, in regions fated to give rise to rhombomeres 3 and 5; thus, co-expression of Sox1 and Otx1/Otx2, in the absence of Eng1 or Krox 20, was used to delineate an anterior/prosencephalic character (Lemaire and Kessel, Gastrulation and homeobox genes in chick embryos. Mech. Dev., 67:3-16, 1997).
In control experiments, 15-30% of cells attained a neural-cell fate when subjected to aggregation in differentiation medium. To suppress a neural-cell fate, medium was supplemented by Wnt3a conditioned medium (1×), BMP4 (10 ng/ml), or SU5402 (5 μM), at the start of ES-cell aggregation (day 0). To induce a neural-cell fate, medium was supplemented by mFRZ8CRD conditioned medium (2×) at the start of ES-cell aggregation (day 0). ES cells were differentiated for 4-8 days.

[4] = tested on: ES-cell-derived neural precursor cells; test: Caudalization of a neural character by Wnt3a; format: cell-based, mouse; details: Wnt3a at different concentrations and/or times; 2 days differentiation medium, then 2 days with Wnt3a
Procedure: as §2, §3
Immunohistochemical localization of proteins was performed, as previously described (Yamada et al., Control of cell pattern in the developing nervous system: polarizing activity of the floor plate and notochord. Cell, 64:635-47, 1991). […]

mouse ES cells = test: Directed differentiation of ES cells into LH2-positive dorsal spinal neurons; format: cell-based; details: embryoid bodies grown in the presence of BMP7
Procedure: Embryonic stem (ES) cells were grown on mouse embryonic fibroblasts in ES-cell medium, as described in Example 1. ES-cell colonies were partially dissociated with 0.05% trypsin/EDTA, after 2 days, and cultured in DFNB medium (neurobasal medium (Gibco) mixed with DMEM (Specialty Media, EmbryoMax) and F12 (Gibco), in a 2:1:1 ratio, supplemented with 1×B27 supplement, 0.1 mM 2-mercaptoethanol (Sigma), 2 mM L-glutamine (Gibco), and 1× penicillin/streptomycin (Gibco)) (˜10^5 cells/ml).
After 2 days in culture, embryoid bodies (EBs) were plated in DFNB medium supplemented with retinoic acid (100 nM to 1 μM) (Sigma). After 1-2 days in culture, in the presence of retinoic acid, EBs were collected, rinsed 2-3 times with PBS, and plated in DFNB medium supplemented with human BMP4 (10 ng/ml; R&D systems) or BMP7 (20 ng/ml). After an additional 4 days in culture, cells were fixed using 4% paraformaldehyde, and processed for immunocytochemistry.

[5] = RA-treated EBs, 10 nM Hh-Ag1.3, 3 days

CNC1CCC(N(Cc2cccc(-c3ccncc3)c2)C(=O)c2sc3ccccc3c2Cl)CC1 (centres unmarked) [Hh-Ag1.3]
toxicity for cells differentiating in EBs (HBG3 ES cells; 10 μM Hh-Ag1.3): became toxic for cells differentiating in EBs
generation of eGFP+/HB9+ motor neurons (HBG3 ES cells; Hh-Ag1.3 (1 μM) in the absence of RA): failed to generate eGFP^+/HB9^+ motor neurons
eGFP+/HB9+ motor neurons as share of total cells in EBs (HBG3 ES cells; RA and 1 μM Hh-Ag1.3): 20-30%
cells in EBs expressing eGFP (HBG3 ES cells; RA plus 2.2 μM Hh-Ag1.3, 5 days): 22.5%
number of eGFP+/HB9+ motor neurons (HBG3 ES cells; RA-exposed HBG3 EBs plus Hh-Ag1.3, concentration-dependent (0 to 2.2 μM)): increased
HB9+ neurons in EBs ([1]; Hh-Ag1.3 (1 μM) for 5 days without RA): No HB9^+ neurons were generated; also recorded: did not contain HB9^+ neurons
HB9+ neurons per section ([1]; RA-treated EBs plus SHh (300 nM) or Hh-Ag1.3 (1 μM)): 509±57 HB9^+ neurons/section
HB9+ neurons per EB ([1]; RA-treated EBs plus SHh (300 nM) or Hh-Ag1.3 (1 μM), ~10-15 sections per EB): 5000 HB9^+ neurons
BrdU incorporation by Olig2+ cells ([2]; Hh-Ag1.3-exposed EBs, 3 days with RA): incorporated BrdU
Nkx6.1+ and Olig2+ cells [2, 5]: a few Nkx6.1^+ and Olig2^+ cells were detected
Pax7 expression [2, 5]: completely repressed
number of Dbx1+ cells [2, 5]: reduced
number of Pax6+ and Irx3+ cells [2, 5]: increased
Dbx1 expression ([2]; RA-treated EBs, 1 μM Hh-Ag1.3): virtually eliminated
HNF3β+ floor plate cells ([2]; RA-treated EBs, 1 μM Hh-Ag1.3): no HNF3β^+ floor plate cells were detected
Nkx2.2+ cells ([2]; RA-treated EBs, 1 μM Hh-Ag1.3): a few Nkx2.2^+ cells were also induced
number of Irx3+ and Pax6+ cells ([2]; RA-treated EBs, 1 μM Hh-Ag1.3): markedly reduced
number of Nkx6+ and Olig2+ cells ([2]; RA-treated EBs, 1 μM Hh-Ag1.3): large increase

CC1=C(/C=C/C(C)=C/C=C/C(C)=C/C(=O)O)C(C)(C)CCC1 [RA, retinoic acid]
HB9+ neurons per section ([1]; RA-exposed EBs grown alone for 5 days): 7±2 HB9^+ neurons/section

Cc1c[nH]c(/C=C2\C(=O)Nc3ccccc32)c1CCC(=O)O [SU5402]
acquisition of neural precursor cell fate (Sox1) [3]: could not acquire a neural precursor cell fate

Wnt3a
caudalization of neural cells [4]: progressively caudalized to hindbrain and spinal cord character
acquisition of neural precursor cell fate (Sox1) [3]: could not acquire a neural precursor cell fate
neural precursor or post-mitotic neural cells [3]: no neural precursor or post-mitotic neural cells were present

B1: BMP7: bone morphogenetic protein 7 (protein, UniProt P18075 293-431, looked up)
Bone morphogenetic protein 7: STGSKQRSQNRSKTPKNQEALRMANVAENSSSDQRQACKKHELYVSFRDLGWQDWIIAPEGYAAYYCEGECAFPLNSYMNATNHAIVQTLVHFINPETVPKPCCAPTQLNAISVLYFDDSSNVILKKYRNMVVRACGCH
dorsal spinal neurons (LH2) and their progenitors (Math1) (mouse ES cells): numerous dorsal neurons and their progenitors were observed

B2: BMP4: human BMP4 protein (bone morphogenetic protein), R&D systems (protein, UniProt P12644 293-408, looked up)
Bone morphogenetic protein 4: SPKHHSQRARKKNKNCRRHSLYVDFSDVGWNDWIVAPPGYQAFYCHGDCPFPLADHLNSTNHAIVQTLVNSVNSSIPKACCVPTELSAISMLYLDEYDKVVLKNYQEMVVEGCGCR
acquisition of neural precursor cell fate (Sox1) [3]: could not acquire a neural precursor cell fate
neural precursor or post-mitotic neural cells [3]: no neural precursor or post-mitotic neural cells were present
